The values that follow come from patent publication US20050100888A1, “Methods based on hormone dependency of primary cancer cells” (Imperial College Innovations Limited, priority 2002, published 2005).

Assay [1] relates to estrogen receptor (ER). Put plainly: adenoERreporter assay in breast cancer cells from metastatic effusions (pleural, ascites). Type of assay: cell-based, human. An excerpt: In the case of metastatic fluid, 100 mls of the fluid was sent for cytological examination and staining for ER and PR. The remaining fluid was centrifuged and the cell pellets were pooled. This was re-suspended in RPMI-1640/1% FCS and tumour cell numbers estimated as before. If the cells were in clusters, trypsin/EDTA (Sigma, Poole, UK) was used to obtain single cell suspensions before filtering to remove any debris. The remaining steps were as above. The purified cells were either infected immediately or cultured for a few days prior to infection.
(§1) For infections of primary cells, 6-10,000 cells/well were allowed and exposed to the given quantity of virus, after which they were pelleted and re-supended in 200 ul of PR free/5% DSS medium containing the appropriate ligands prior to plating into 96-well plates.
(§2) Reporter Gene Assay 48 hours after virus infection, 20 ul of 20% Triton in PBS was added to each well and incubated at RT for 10 minutes. […] (CRPG) made up in TBS at a concentration of 8 mg/ml was then added to the wells and the plate was incubated, foil-wrapped, at 37° C. until a colour change was observed. Plate readings were taken at a wavelength of 547 nm.
(§3) We purified breast cancer cells from metastatic fluid, both pleural and ascites as well as fine needle aspirates (FNA) from recurrent breast cancer. These cells were counted and infected with adenoERreporter and after 48 hours a β-gal assay was performed. We have infected 9 metastatic effusions including 2 cell lines of passage number two, derived from pleural effusions and 4 FNAs. Tables 3 and 4 show the treatment history and characteristics of the patients that provided the samples. Where possible, some of the fluid was sent for cytology and ER staining.

The test system of assay [2] is estrogen receptor (ER). Put plainly: adenoERreporter assay in fine needle aspirates (FNA) from recurrent breast cancer. Type of assay: cell-based, human. On the procedure: Cells obtained from FNAs were collected in PBS (Sigma, Poole, UK) containing 2% FCS. If the aspirate was bloody, erythrocyte lysis buffer (0.155M NH4Cl, 10 mM KHCO3, 0.1 mM EDTA, pH 7.4) was used to lyse the red blood cells and after a further wash with PBS, the cells were re-suspended in culture media for counting and immediate infections.
as §1, §2
as §3, with “staining. However, this was not always feasible due to the variability of cancer cells in the metastatic fluid.” for “staining.”

The subject of assay [3] is estrogen receptor (ER). Briefly: adeno-reporter assay in purified primary breast cancer cells (tumour, lymph node). The format is cell-based, human. Particulars: for Reporter response: E2 10 nM, OHT 100 nM, ICI 100 nM, 48 h. The procedure:
The product was then filtered through a nylon mesh (Lockertex Ltd, Merseyside, UK) and the filtrate centrifuged at 2000 rpm, at room temperature (RT). The pellet was re-suspended in 9 mls of RPMI/1% FCS and a cell count performed to estimate the number of tumour cells in the preparation. […] A count of viable tumour cells was performed using trypan blue (Sigma, Poole, UK) prior to seeding in breast complete medium (DMEM/F-12 containing, 15 mM Hepes, 2 mM L-glutamine, 100U/ml penicillin, O. 1 mg/ml streptomycin, 50 U/ml polymixin B, 2.5 μg/ml amphotericin B, 5 μg/ml insulin, 10 μg/ml apo-transferrin, 100 μM ethanolamine, 1 μg/ml hydrocortisone, 10 ng/ml EGF) plus 5% FCS) for culture. The cells were used for experiments on day 3 after the initial plating.
as §1
Cells were incubated for 48 hours following infections unless stated otherwise.
as §2
We have used the adeno-reporter to infect purified cells from breast cancer and lymph nodes of 19 patients. The reporter assay was performed in a blinded fashion since the IHC report of ER status was not available until after the experiments were complete. Viral infections were performed in suspension so as not to loose cancer cells since they were only loosely adherent. Following exposure to the virus for an hour, the cells were washed to remove excess virus and then plated and incubated in PR free/5% DSS supplemented with the given ligands for 48 hours.

The subject of assay [4] is normal mammary epithelial cells. Put plainly: effects of estrogen and tamoxifen on purified normal mammary epithelial cells. Type of assay: cell-based, human. The following applies: purified normal breast cells. On the procedure: Cell viability was assessed using exclusion of Trypan blue staining. Proliferation of cells in culture was assessed by measuring tritiated thymidine (3HTdR) incorporation into DNA and using the MTS assay. For ^3HTdR-labelling, purified cells were seeded into the wells of 24-well dishes. The medium was subsequently changed for 0.5 ml of ^3HTdR-supplemented thymidine-free medium (RPMI, 2 mM L-glutamine, 100U/ml penicillin, 0.1 mg/ml streptomycin plus dialysed 2% FCS). The amount of incorporated ^3HTdR in the cultures was measured by scintillation counting following precipitation with trichloroacetic acid. MTS assays were carried out using the Cell Titre 96 (Promega, UK), according to manufacturer's protocols.
(§4) 1×10^5 cells were plated into the wells of 96 well plates. […] Total and viable (Trypan blue) cell counts were measured during the time course of the experiment.
(§5) Normal cells were studied at several time points whereas due to limited number of cells, studies were limited to 2 time points in tumors. Trypan Blue staining determined viable cell numbers.

Assay [5] relates to estrogen receptor (ER). Put plainly: viral ER reporter in ER negative breast cancer cell lines. The following applies: virus 100:1. Type of assay: cell-based, human. The procedure: FIG. 3: Reporter activity in variety of estrogen receptor alpha positive (MCF-7, T47-D, ZR75-1, BT474) and negative (Cal-51, SkBr3, and MDA-MB231 cell lines). For each figure, the order is as follows: (1) refers to the no ligand control.
For adenovirus infections, cell lines were plated in 96 wells at the given density in phenol red free DMEM supplemented with 5% double-stripped serum (PR/5% DSS). The following day cells were exposed to the given quantity of plaque forming units per cell (multiplicity of infection, MOI) in PR/SF medium. This was incubated at 37° C. for 1 hour after which the media was replaced by PR free/5% DSS containing the ligands.
as §2
We went on to test the virus reporter in a variety of ER positive and ER negative cell lines. Again 0.5×10^5 cells were infected with 100 virus per cell (100:1). Using the GFP virus it was evident that the infectability of the cell lines was variable. […]

Assay [6] concerns malignant mammary epithelial cells. Put plainly: effects of estradiol and tamoxifen on survival of purified malignant mammary epithelial cells (Trypan blue counts). The format is cell-based, human. Particulars: for effect on cell death: ER positive purified breast cancer cells, E2 10 nM, OHT 100 nM. The procedure:
as §4, §5

For assay [7], the system named is ER positive tumours. The following applies: cited from earlier work.
Where [8] appears, read: Table 2 patient 5 Ln, ER+/PR−, Pre.
The mark [9] stands for this setting: Table 2 patient 8, ER+++/PR−, Post.
Setting [10] is: Table 2 patient 12 Tu, Anaplastic small cell carcinoma, ER−/PR−.
The mark [11] stands for this setting: Table 2 patient 13, ER−/PR−, Post.

Consider 4-hydroxytamoxifen [4-OHT], for which, in assay [1] (patient 4 (table 3), ascites, no previous treatment), the “effect on ER activity” value is on record as “inhibitory”. In addition, the “Reporter Assay: inhibition” value in assay [2] (FNA summary table, N = 1, IHC ER−/PR−, ?Responder) is reported as “OHT/ICI inhibit by × 1.8”. Also, the Reporter response result in assay [3] (setting [8]), in assay [3] (setting [9]), in assay [3] (Table 2 patient 12 Ln), in assay [3] (setting [10]), in assay [3] (setting [11]) and in assay [3] (Table 2 patient 15 Ln) was “ns” throughout. Moreover, the Reporter response result is given as “ns” in assay [3] (Table 2 patient 15 Tu, ER−/PR−); “ns” in assay [3] (Table 2 patient 16 Ln); “ns” in assay [3] (Table 2 patient 16 Tu, Post); “ns” in assay [3] (Table 2 patient 17); “ns” in assay [3] (Table 2 patient 18, ER−/PR−).

Turning to `C[C@]12CC[C@@H]3c4ccc(O)cc4CC[C@H]3[C@@H]1CC[C@@H]2O` [E2, 17β-estradiol], the “stimulatory effect on the reporter above the background activity” value in assay [1] (ER positive relapsed patients, compared with primary breast tumour) was “less of a stimulatory effect”. The “Reporter Activity” value is recorded as “Ns” in assay [1] (Table 3 patient 1) T2G2NxM0, PE, primary ER++/PR−, prior Tamoxifen 3y, Lentaron 5m) and “Ns” in assay [2] (Table 4 patient 1) T3G2N1M0, FNA ER−/PR−, no prior endocrine treatment). In addition, the “expression of estrogen-regulated genes after estrogen exposure” value in assay [4] is “expressing both PR and PS2”. In addition, the Reporter response entry in assay [3] (setting [8]), in assay [3] (setting [9]), in assay [3] (Table 2 patient 12 Ln), in assay [3] (setting [10]), in assay [3] (setting [11]) and in assay [3] (Table 2 patient 15 Ln) was “ns” in each case. Also, the Reporter response entry in assay [3] (Table 2 patient 15 Tu, ER−/PR−) is “ns”; in assay [3] (Table 2 patient 16 Ln), “ns”; in assay [3] (Table 2 patient 16 Tu, Post) it was “ns”; in assay [3] (Table 2 patient 17), “ns”; in assay [3] (Table 2 patient 18, ER−/PR−), “ns”. In addition, in assay [5], the “effect on ERE driven β-gal reporter / baseline activity” value is “no appreciable effect”. Further, in assay [6] (ER negative breast cancer cells), the “effect of estrogen on cells” value is “no effect”. For the same compound, the “effect on cell death” value in assay [6] is on record as “reduction in cell death”.

Regarding `CC/C(=C(\c1ccccc1)c1ccc(OCCN(C)C)cc1)c1ccccc1` [tamoxifen], in assay [7] (breast cancer patients, adjuvant/metastatic treatment), the “patients with ERα-positive disease that do not respond” value is listed as “approximately 30%”. Besides, the “patients with ER positive tumours that fail to respond” value in assay [7] (primary endocrine therapy (Gazet et al 1987)) is recorded as about 50%. Also, the “increase in reporter activity in the presence of tamoxifen” value in assay [1] (patient 1 (Table 3)) is reported as “approximately 10 fold”. Moreover, in assay [1] (patient 3, table 3, previous tamoxifen for one year), the “response of cells to tamoxifen” value is “continued to respond to tamoxifen”. In assay [1] (patient samples 1, 5 and 6 (Table 3) and patient 6 (Table 4), relapsed after tamoxifen), the “effect on reporter compared with E2” value is reported as “an effect at least equivalent to E2”. Also, the effect on proliferation result in assay [4] is recorded as “decrease”. The “effect on reporter activity across patient samples” value in assay [3] (purified cells from breast cancer and lymph nodes of 19 patients) is given as “inhibitory in most cases but did show some agonistic activity in a proportion of patients”. In assay [6] (7 tumors studied, responders all ER positive, viable counts by Trypan Blue), the “cell numbers after tamoxifen treatment compared to estradiol treatment” value was “Four out of the 7 tumors studied showed significant reduction in cell numbers”. The “effect on cell death” value in assay [6] is “reversed”.
